Consider 5 compounds from publication PMC9416745, “The Effect of 1,2,4-Triazole-3-thiol Derivatives Bearing Hydrazone Moiety on Cancer Cell Migration and Growth of Melanoma, Breast, and Pancreatic Cancer Spheroids” (Pharmaceuticals, 2022).

The test system of data set [1] is human malignant melanoma cell line IGR39. In words: MTT cell viability assay, IGR39. In kind it is cell-based. Conditions: 50 µM, 72 h. Here is the method: (§1) The effect of synthesized compounds on cell viability was studied using 3-(4,5-dimethylthiazol-2-yl)-2,5-diphenyltetrazolium bromide (MTT; Sigma-Aldrich Co., St Louis, MO, USA) assay, as described elsewhere. Briefly, IGR39, MDA-MB-231, Panc-1, and HF cells were seeded in 96-well plates (Corning) in triplicate at a volume of 100 μL (IGR39, MDA-MB-231 and Panc-1: 4 × 10^3 cells/well; HF: 5 × 10^3 cells/well). After 24 h, cells were treated with 50 μM of tested compounds. After 72 h, the MTT reagent was added and cells were incubated for 4 h. Then the medium was aspirated, and the formed formazan crystals were dissolved in 100 μL DMSO (Sigma-Aldrich Co., St. Louis, MO, USA). The absorbance was measured at 570 and 630 nm using a multi-detection microplate reader. The compound effect on cell viability was calculated using the formula:(1) Relative cell viability (%)=A−A0/ANC−A0 where
(§2) • A—mean of absorbance of the tested compound, • A0—mean of absorbance of blank (no cells, positive control), and • ANC—mean of absorbance of negative control (only cells, no treatment).
(§3) The compound serial dilutions from 50 µM to 1.56 µM were made in a medium and added to the cells in triplicates. The EC50 value representing the concentration of a compound causing 50% reduction of cancer cell metabolic activity was calculated using the Hill equation.
A general note: Formazan colour is commonly taken as a measure of viable cells.

Data set [2] has as its system melanoma IGR39 spheroids. Kind of data set: 3D cell cultures (spheroids), IGR39. Format: cell-based, human. Conditions: 10 µM, 8 days of incubation. Here is the method: (§4) Cancer cell spheroids were formed using the magnetic 3D Bioprinting method, as described elsewhere. Briefly, melanoma IGR39, triple-negative breast cancer MDA-MB-231 cells, pancreatic cancer Panc-1 cells, and human fibroblasts at 70% confluency in a 6-well plate were incubated with Nanoshuttle (n3D Biosciences, Inc., Houston, TX, USA) for 8 h at 37°C in a humidified atmosphere containing 5% CO2. Then cells were trypsinized, centrifuged, and seeded into an ultra-low attachment 96-well plate in a volume of 100 µL (1.5 × 10^3 cancer cells and 1.5 × 10^3 human fibroblasts/well). The plate was placed on a magnetic drive and incubated for 2 days at 37°C in a humidified atmosphere containing 5% CO2. Then the fresh medium containing 10 µM of the tested compound was added to the wells. Spheroids were captured every two days using the Olympus IX73 inverted microscope (OLYMPUS CORPORATION, Tokyo, Japan). Quantitative analysis of compound anticancer activity in spheroids was performed using ImageJ, version 1.53o (National Institutes of Health, USA) and Microsoft Office Excel 2016 software (Microsoft Corporation, Redmond, WA, USA).
(§5) On the last day of incubation, 10 µL of WST-1 reagent (Sigma-Aldrich Co, St. Louis, MO, USA) was added to each well with spheroids. After 10 h of incubation, 50 µL of liquid from each well were transferred to the new 96-well plate and the absorbance was measured at 460 and 530 nm using a multi-detection microplate reader. Spheroid cell viability was calculated using a formula provided in Section 3.2.2.

Data set [3] has as its system IGR39, MDA-MB-231 and Panc-1 tumour spheroids. In words: 3D cell cultures (spheroids), stated for all three spheroid types. Format: cell-based, human. Conditions: 10 µM, 8 days of incubation. Here is the method: as §4, §5
The subject of data set [4] is IGR39, MDA-MB-231 and Panc-1 cell lines. Kind of data set: MTT cell viability assay, result stated for all tested cancer cell lines together. In kind it is cell-based, human. As to conditions: 72 h; for EC50: Homo sapiens, range over cancer cell lines, read-out: EC50 values against the tested cancer cell lines (range). Here is the method: as §1, §2, §3
Data set [5] deals with Panc-1 cells. Kind of data set: MTT, effect of 10 µM compound on Panc-1 cell viability (Procedure S1). In kind it is cell-based. As to conditions: Homo sapiens, after 72 h. The method, then:
(§6) The ‘Wound healing’ assay was used to evaluate compound activity on cell migration. […] The effect of this concentration on cell viability after 24 h, 48 h and 72 h was studied in separate experiments (Figures S58–60) using the MTT assay (the procedure is described in Supplementary Materials).
(§7) Procedure S1. Evaluation of 10 µM compound concentration effect on cell line viability.
(§8) The effect of 10 µM compounds on cell viability was studied using 3-(4,5-dimethylthiazol-2-yl)-2,5-diphenyltetrazolium bromide (MTT; Sigma-Aldrich Co., St Louis, MO, USA) assay. IGR39, MDA-MB-231, and Panc-1 cells were seeded in 96-well plates (Corning) in triplicates at a volume of 100 µL at 4 × 10^3 cells/well). After 24 h, the cells were treated with 10 µM of compounds 4, 7, 8, 10, 14, 17, and 18. After 24 h, 48 h and 72 h (only Panc-1 cells), the MTT reagent has been added and cells were incubated for 4 h. Then the medium was aspirated, and the formed formazan crystals were dissolved in 100 µL DMSO (Sigma-Aldrich Co., St. Louis, MO, USA). The absorbance was measured at 570 and 630 nm using a multi-detection microplate reader. Compound effect on cell viability was calculated according to a formula:
(§9) Relative cell viability ሺ%ሻ = A− A଴
(§10) A – mean of absorbance of tested compound, A0 – mean of absorbance of blank (no cells, positive control), ANC – mean of absorbance of negative control (only cells, no treatment).

For data set [6], the system named is IGR39, MDA-MB-231 and Panc-1 cell migration. Kind of data set: 'Wound healing' cell migration assay, stated for all tested cell lines. As to conditions: 10 µM, compared to the control. In kind it is cell-based, human. Here is the method: (§11) Briefly, melanoma IGR39, human triple-negative breast cancer MDA-MB-231, and pancreatic carcinoma Panc-1 cells were seeded in 24-well plates at a density of 6 × 10^4 cells/well and incubated for 48 h in previously described cell culture medium at 37°C in a humidified atmosphere containing 5% CO2. Then the scratch was made using a 100 µL pipette tip. Cells were washed once with PBS, and the fresh medium containing 10 µM of compounds 4, 7, 8, 10, 14, 17, and 18 was added. Medium containing 0.1% DMSO was used as a negative control. Cells were incubated at 37 °C in a humidified atmosphere containing 5% CO2.
(§12) The ‘Wounds’ were captured at the intervals of 0 h, 24 h, 48 h and 72 h (only for the Panc-1 cell line) from scratch under the phase contrast microscope at a 4× magnification. The wound area was analysed using the ImageJ program (National Institute of Health, Bethesda, MD, USA).

For data set [7], the system named is IGR39 cells. In words: MTT, effect of 10 µM compound on IGR39 cell viability (Procedure S1). In kind it is cell-based. Conditions: Homo sapiens, IGR-39, after 48 h of incubation. The method, then:
as §6, §7, §8, §9, §10

Data set [8] has as its system human triple-negative breast cancer MDA-MB-231. In words: MTT cell viability assay, MDA-MB-231. As to conditions: 50 µM, 72 h. Format: cell-based. The method, then: as §1, §2, §3
The test system of data set [9] is MDA-MB-231 cell migration. In words: 'Wound healing' cell migration assay, MDA-MB-231. Format: cell-based, human. Conditions: 10 µM, both after 24 h and 48 h of incubation. Here is the method:
as §11, §12

Data set [10] concerns melanoma A375 cell. The arrangement: method as in PMID 21700700. As to conditions: cited from earlier work.
The subject of data set [11] is melanoma cell. Also noted: method as in PMID 27572607. Conditions: cited from earlier work.

In the case of `O=C(CSc1nnc(CCNc2ccccc2)n1-c1ccccc1)NN=C1C(=O)Nc2ccccc21` [Compound 4, N′-(2-oxoindolin-3-ylidene)-2-((4-phenyl-5-(2-(phenylamino)ethyl)-4H-1,2,4-triazol-3-yl)thio)acetohydrazide], the melting point fell in the range of 252 to 253 °C. Further, in data set [1], the “selectivity against the melanoma IGR39 cell line (screening)” value is given as “moderate selectivity”. The “melanoma IGR39 spheroid growth” value in [2] is given as “mostly inhibited”. Besides, the “activity in 3D cell cultures (spheroids)” value in [3] is listed as “most active”. In data set [4], the 50% effective concentration (EC50) is 2 to 17 µM. This compound also gave a viability at 10 µM in data set [5] of 74.3 ± 3.4%. For the same compound, the “effect on cell migration” value in data set [6] is recorded as “did not possess activity”.

On to `O=C(CSc1nnc(CCNc2ccccc2)n1-c1ccccc1)NN=Cc1ccc[nH]1` [Compound 14, N′-((1H-pyrrol-2-yl)methylene)-2-((4-phenyl-5-(2-(phenylamino)ethyl)-4H-1,2,4-triazol-3-yl)thio)acetohydrazide], for which the melting point lay within 215 to 216 °C. Besides, in [1], the “activity against the IGR39 cell line (screening)” value is recorded as “least active”. In addition, in data set [2], the “melanoma IGR39 spheroid growth” value is given as “mostly inhibited”. Besides, the “activity in 3D cell cultures (spheroids)” value in [3] is given as “most active”. The viability at 10 µM in data set [7] was 67.9 ± 1.8%. Further, in data set [4], the concentration for a half-maximal effect (EC50) is 2 to 17 µM. In data set [8], the “activity towards the triple-negative breast cancer cell line (screening)” value was “relatively higher activity”. The MDA-MB-231 cell migration entry in data set [9] is given as “migrated slower”.

For the compound `O=C(CSc1nnc(CCNc2ccccc2)n1-c1ccccc1)NN=Cc1ccccc1O` [Compound 17, N′-(2-hydroxybenzylidene)-2-((4-phenyl-5-(2-(phenylamino)ethyl)-4H-1,2,4-triazol-3-yl)thio)acetohydrazide], in data set [2], the “melanoma IGR39 spheroid growth” value was “began to disintegrate”. The “activity in 3D cell cultures (spheroids)” value in [3] is recorded as “most active”. Moreover, the viability at 10 µM came to 76 ± 7.2% in data set [7] and 79.7 ± 3.8% in [5]. The “activity against all tested cancer cell lines (screening)” value in data set [4] (50 µM) is on record as “most active”. For the same compound, the MDA-MB-231 cell migration entry in data set [9] was “migrated slower”.

Take `CN(C)/N=N/c1[nH]cnc1C(N)=O` [Dacarbazine]: the “concentrations inhibiting melanoma A375 cell proliferation” value in data set [10] was 25 to 100 µM.

Consider `CC(C)(C)c1nc(-c2cccc(NS(=O)(=O)c3c(F)cccc3F)c2F)c(-c2ccnc(N)n2)s1` [dabrafenib], for which the “concentration reducing melanoma cell viability” value in [11] is “nanomolar”.

A word on the EC50: it is the concentration needed to bring the measured effect to its halfway point. As usually defined, the viability is a per cent measure of how many cells are alive, often set against a control. A lower viability goes with more harm to the cells. By melting point is commonly meant the temperature of the solid-liquid transition.
